Experimental data reported in patent US6677310B1, “Ring-expanded nucleosides and nucleotides” (Nabi, priority 1999, dated 2004).

What was measured:
Assay type in all cases: cell-based, human
MDA-MB-435 = experiment: SRB anti-cancer assay, Breast Cancer; conditions: MDA-MB-435 (Breast Cancer), 48 h
OVCAR-4 = experiment: SRB anti-cancer assay, Ovarian Cancer; conditions: OVCAR-4 (Ovarian Cancer), 48 h
UACC-62 = experiment: SRB anti-cancer assay, Melanoma; conditions: UACC-62 (Melanoma), 48 h
COLO 205 = experiment: SRB anti-cancer assay, Colon Cancer; conditions: COLO 205 (Colon Cancer), 48 h
NCI-H226 = NCI-H226 (Non-Small Cell Lung Cancer), 48 h
OVCAR-8 = experiment: SRB anti-cancer assay, Ovarian Cancer; conditions: OVCAR-8 (Ovarian Cancer), 48 h
OVCAR-5 = experiment: SRB anti-cancer assay, Ovarian Cancer; conditions: OVCAR-5 (Ovarian Cancer), 48 h
HOP-62 = HOP-62 (Non-Small Cell Lung Cancer), 48 h
OVCAR-3 = experiment: SRB anti-cancer assay, Ovarian Cancer; conditions: OVCAR-3 (Ovarian Cancer), 48 h
NCI/ADR-RES = experiment: SRB anti-cancer assay, Breast Cancer; conditions: 48 h
SF-295 = experiment: SRB anti-cancer assay, CNS Cancer; conditions: SF-295 (CNS Cancer), 48 h
CAKI-1 = experiment: SRB anti-cancer assay, Renal Cancer; conditions: CAKI-1 (Renal Cancer), 48 h
SNB-75 = experiment: SRB anti-cancer assay, CNS Cancer; conditions: SNB-75 (CNS Cancer), 48 h
NCI-H460 = NCI-H460 (Non-Small Cell Lung Cancer), 48 h
SK-MEL-28 = experiment: SRB anti-cancer assay, Melanoma; conditions: SK-MEL-28 (Melanoma), 48 h
KM12 = experiment: SRB anti-cancer assay, Colon Cancer; conditions: 48 h
SN12C = experiment: SRB anti-cancer assay, Renal Cancer; conditions: 48 h
MALME-3M = experiment: SRB anti-cancer assay, Melanoma; conditions: MALME-3M (Melanoma), 48 h
SNB-19 = experiment: SRB anti-cancer assay, CNS Cancer; conditions: SNB-19 (CNS Cancer), 48 h
DU-145 = experiment: SRB anti-cancer assay, Prostate Cancer; conditions: DU-145 (Prostate Cancer), 48 h
SF-268 = experiment: SRB anti-cancer assay, CNS Cancer; conditions: SF-268 (CNS Cancer), 48 h
A549/ATCC = A549/ATCC (Non-Small Cell Lung Cancer), 48 h
UO-31 = experiment: SRB anti-cancer assay, Renal Cancer; conditions: UO-31 (Renal Cancer), 48 h
MDA-N = experiment: SRB anti-cancer assay, Breast Cancer; conditions: 48 h
CCRF-CEM = experiment: SRB anti-cancer assay, Leukemia; conditions: 48 h
SK-OV-3 = experiment: SRB anti-cancer assay, Ovarian Cancer; conditions: SK-OV-3 (Ovarian Cancer), 48 h
HCC-2998 = experiment: SRB anti-cancer assay, Colon Cancer; conditions: HCC-2998 (Colon Cancer), 48 h
NCI-H23 = NCI-H23 (Non-Small Cell Lung Cancer), 48 h
SW-620 = experiment: SRB anti-cancer assay, Colon Cancer; conditions: SW-620 (Colon Cancer), 48 h
[1] = read-out: LC50 (the source's name)

Question: Which results are given for `N=c1nc(N)c2ncn([C@@H]3O[C@H](CO)[C@@H](O)[C@H]3O)c2c(N)n1` [Compound 14-2, 4,8-Diamino-6H-6-imino-1-β-D-ribofuranosylimidazo[4,5-e][1,3]diazepine]?
Answer: GI50 (MDA-MB-435): 12.8 µM; TGI (MDA-MB-435): 29.1 µM; CC50 (MDA-MB-435; [1]): 65.9 µM; GI50 (OVCAR-4): 16.7 µM; TGI (OVCAR-4): 35.6 µM; CC50 (OVCAR-4; [1]): 76.1 µM; GI50 (UACC-62): 2.88 µM; TGI (UACC-62): 16.2 µM; CC50 (UACC-62; [1]): 56.3 µM; GI50 (COLO 205): 21 µM; LC50 (COLO 205): 63.4 µM; TGI (COLO 205): 36.5 µM; GI50 (NCI-H226): 33.2 µM; TGI (NCI-H226): >100 µM; CC50 (NCI-H226; [1]): > 100 µM; GI50 (OVCAR-8): 13.2 µM; LC50 (50% lethal concentration) (OVCAR-8): 75.3 µM; TGI (OVCAR-8): 31.5 µM; GI50 (OVCAR-5): 16.8 µM; TGI (OVCAR-5): 32.7 µM; CC50 (OVCAR-5; [1]): 64 µM; GI50 (HOP-62): 28.5 µM; LC50 (concentration for 50% net cell kill) (HOP-62): > 100 µM; TGI (HOP-62): >100 µM; GI50 (OVCAR-3): 3.53 µM; TGI (OVCAR-3): 13.2 µM; CC50 (OVCAR-3; [1]): 42.3 µM; GI50 (NCI/ADR-RES): 23.4 µM; TGI (NCI/ADR-RES): 67.6 µM; CC50 (NCI/ADR-RES; [1]): > 100 µM; GI50 (SF-295): 24.7 µM; TGI (SF-295): 63.7 µM; CC50 (SF-295; [1]): > 100 µM; GI50 (CAKI-1): 20.3 µM; TGI (CAKI-1): 71 µM; CC50 (CAKI-1; [1]): > 100 µM; GI50 (SNB-75): 27.9 µM; LC50 (concentration killing 50% of cells) (SNB-75): > 100 µM; TGI (SNB-75): 99.1 µM; GI50 (NCI-H460): 15.4 µM; TGI (NCI-H460): 31.4 µM; CC50 (NCI-H460; [1]): 64.1 µM; GI50 (SK-MEL-28): 25.4 µM; LC50 (SK-MEL-28): > 100 µM; TGI (SK-MEL-28): 81.1 µM; GI50 (KM12): 18.6 µM; LC50 (KM12): > 100 µM; TGI (KM12): 59.3 µM; GI50 (SN12C): 14.5 µM; TGI (SN12C): 29.8 µM; CC50 (SN12C; [1]): 61.2 µM; GI50 (MALME-3M): 2.2 µM; LC50 (MALME-3M): 25.3 µM; TGI (MALME-3M): 6.79 µM; GI50 (SNB-19): 17.1 µM; TGI (SNB-19): 51.5 µM; CC50 (SNB-19; [1]): > 100 µM; GI50 (DU-145): 15 µM; TGI (DU-145): 30.2 µM; CC50 (DU-145; [1]): 60.7 µM; GI50 (SF-268): 15.7 µM; TGI (SF-268): 34.8 µM; CC50 (SF-268; [1]): 77.2 µM; GI50 (A549/ATCC): 22.3 µM; TGI (A549/ATCC): 58.4 µM; CC50 (A549/ATCC; [1]): > 100 µM; GI50 (UO-31): 13.7 µM; TGI (UO-31): 28.9 µM; CC50 (UO-31; [1]): 61.2 µM; GI50 (MDA-N): 12.5 µM; TGI (MDA-N): 26.1 µM; CC50 (MDA-N; [1]): 54.5 µM; GI50 (CCRF-CEM): 59 µM; TGI (CCRF-CEM): >100 µM; CC50 (CCRF-CEM; [1]): > 100 µM; GI50 (SK-OV-3): 51.8 µM; TGI (SK-OV-3): >100 µM; CC50 (SK-OV-3; [1]): > 100 µM; GI50 (HCC-2998): 16.4 µM; TGI (HCC-2998): 30.8 µM; CC50 (HCC-2998; [1]): 58 µM; GI50 (NCI-H23): 16.8 µM; TGI (NCI-H23): 33.4 µM; CC50 (NCI-H23; [1]): 66.2 µM; GI50 (SW-620): 17.2 µM; TGI (SW-620): >100 µM; CC50 (SW-620; [1]): > 100 µM
